The NIST ThermoML archive (doi:10.1016/j.jct.2018.12.019)

Legend:
[1] = xn = mol fraction of the nth substance listed; settings: 98 kPa, Liquid; for speed of sound: Frequency=3 MHz, Single path-length method; for mass density: Vibrating tube method
[2] = excess molar enthalpy (molar enthalpy of mixing); xn = mol fraction of the nth substance listed; settings: 298.15 K, 98 kPa, Liquid, Calvet calorimetry

Cn1ccnc1 [1-methylimidazole] + CC(C)O
[1]
Settings | mass density, 288.15 K [kg/m3] | mass density, 298.15 K [kg/m3] | mass density, 308.15 K [kg/m3] | mass density, 318.15 K [kg/m3] | mass density, 328.15 K [kg/m3] | speed of sound, 288.15 K [m/s] | speed of sound, 298.15 K [m/s] | speed of sound, 308.15 K [m/s] | speed of sound, 318.15 K [m/s] | speed of sound, 328.15 K [m/s]
x1 = 0.0508 | 803.32 | 794.92 | 786.26 | 777.31 | 767.99 | 1199.2 | 1164 | 1128.7 | 1093.2 | 1057.4
x1 = 0.1043 | 817.79 | 809.32 | 800.63 | 791.7 | 782.45 | 1224.9 | 1189.6 | 1154.6 | 1118.7 | 1083
x1 = 0.2003 | 843.18 | 834.63 | 825.91 | 817 | 807.86 | 1268.9 | 1233.4 | 1197.9 | 1162.5 | 1127.2
x1 = 0.3007 | 869.37 | 860.76 | 852.02 | 843.13 | 834.07 | 1313.8 | 1278.4 | 1242.9 | 1207.7 | 1172.6
x1 = 0.405 | 896.25 | 887.59 | 878.83 | 869.96 | 860.95 | 1360.7 | 1325.3 | 1289.7 | 1254.5 | 1219.5
x1 = 0.5046 | 921.64 | 912.93 | 904.15 | 895.28 | 886.27 | 1406.8 | 1371.1 | 1335.5 | 1300.1 | 1265
x1 = 0.6006 | 945.55 | 936.79 | 927.97 | 919.09 | 910.11 | 1451.7 | 1415.7 | 1379.6 | 1344 | 1308.6
x1 = 0.7034 | 970.8 | 962 | 953.15 | 944.24 | 935.27 | 1500.7 | 1464.1 | 1427.7 | 1391.6 | 1355.8
x1 = 0.8029 | 994.49 | 985.66 | 976.78 | 967.86 | 958.89 | 1547.2 | 1510.2 | 1473.3 | 1436.7 | 1400.5
x1 = 0.9031 | 1017.75 | 1008.9 | 1000.03 | 991.11 | 982.15 | 1592.8 | 1555.5 | 1518.1 | 1481.2 | 1444.6
x1 = 0.9536 | 1029.16 | 1020.32 | 1011.45 | 1002.55 | 993.6 | 1614.9 | 1577.5 | 1540 | 1502.9 | 1466.2
x1 = 1 | 1039.36 | 1030.52 | 1021.66 | 1012.76 | 1003.83 | 1634.1 | 1596.5 | 1559 | 1521.8 | 1485

[2]
Settings | excess molar enthalpy [kcal/mol]
x1 = 0.0518 | -0.0112
x1 = 0.1082 | -0.0304
x1 = 0.1974 | -0.0511
x1 = 0.2924 | -0.0734
x1 = 0.3342 | -0.0793
x1 = 0.3969 | -0.0848
x1 = 0.4954 | -0.0899
x1 = 0.5926 | -0.0846
x1 = 0.7041 | -0.0719
x1 = 0.798 | -0.0519
x1 = 0.8831 | -0.0294
x1 = 0.9538 | -0.0143
x1 = 1 | 0

Cn1ccnc1 [1-methylimidazole] + CCO
[1]
Settings | mass density, 288.15 K [kg/m3] | mass density, 298.15 K [kg/m3] | mass density, 308.15 K [kg/m3] | mass density, 318.15 K [kg/m3] | mass density, 328.15 K [kg/m3] | speed of sound, 288.15 K [m/s] | speed of sound, 298.15 K [m/s] | speed of sound, 308.15 K [m/s] | speed of sound, 318.15 K [m/s] | speed of sound, 328.15 K [m/s]
x1 = 0.0511 | 812.59 | 803.97 | 795.24 | 786.37 | 777.3 | 1210.6 | 1176.2 | 1141.9 | 1108 | 1074.3
x1 = 0.1012 | 829.84 | 821.16 | 812.37 | 803.49 | 794.35 | 1240.8 | 1206.2 | 1171.7 | 1137.5 | 1103.7
x1 = 0.2006 | 861.64 | 852.87 | 844 | 835.02 | 825.9 | 1296.9 | 1261.9 | 1227 | 1192.5 | 1158.3
x1 = 0.3012 | 891.28 | 882.45 | 873.53 | 864.53 | 855.41 | 1350 | 1314.7 | 1279.5 | 1244.6 | 1210.1
x1 = 0.3955 | 916.81 | 907.94 | 899 | 889.99 | 880.88 | 1396.8 | 1361.2 | 1325.7 | 1290.5 | 1255.7
x1 = 0.5 | 942.71 | 933.82 | 924.87 | 915.86 | 906.77 | 1445.7 | 1409.8 | 1373.8 | 1338.3 | 1303
x1 = 0.5994 | 965.25 | 956.36 | 947.41 | 938.4 | 929.34 | 1489.5 | 1453 | 1416.7 | 1380.7 | 1345.1
x1 = 0.7066 | 987.5 | 978.61 | 969.67 | 960.68 | 951.65 | 1533 | 1496.1 | 1459.3 | 1423 | 1386.9
x1 = 0.8063 | 1006.58 | 997.7 | 988.78 | 979.82 | 970.81 | 1570.7 | 1533.5 | 1496.3 | 1459.6 | 1423.3
x1 = 0.902 | 1023.35 | 1014.49 | 1005.59 | 996.65 | 987.68 | 1603.2 | 1565.8 | 1528.4 | 1491.4 | 1454.8
x1 = 0.9505 | 1031.47 | 1022.63 | 1013.75 | 1004.83 | 995.88 | 1619 | 1581.5 | 1544 | 1507 | 1470.2
x1 = 1 | 1039.36 | 1030.52 | 1021.66 | 1012.76 | 1003.83 | 1634.1 | 1596.5 | 1559 | 1521.8 | 1485

[2]
Settings | excess molar enthalpy [kcal/mol]
x1 = 0.0523 | -0.0449
x1 = 0.1012 | -0.0853
x1 = 0.2013 | -0.15
x1 = 0.3057 | -0.194
x1 = 0.4037 | -0.23
x1 = 0.5087 | -0.239
x1 = 0.5987 | -0.199
x1 = 0.7146 | -0.152
x1 = 0.8003 | -0.105
x1 = 0.8861 | -0.0619
x1 = 0.9463 | -0.0344
x1 = 1 | 0

Cn1ccnc1 [1-methylimidazole] + CCCO
[1]
Settings | mass density, 288.15 K [kg/m3] | mass density, 298.15 K [kg/m3] | mass density, 308.15 K [kg/m3] | mass density, 318.15 K [kg/m3] | mass density, 328.15 K [kg/m3] | speed of sound, 288.15 K [m/s] | speed of sound, 298.15 K [m/s] | speed of sound, 308.15 K [m/s] | speed of sound, 318.15 K [m/s] | speed of sound, 328.15 K [m/s]
x1 = 0.0507 | 820.94 | 812.86 | 804.67 | 796.32 | 787.79 | 1261.9 | 1227.2 | 1192.8 | 1158.7 | 1124.9
x1 = 0.1042 | 834.73 | 826.55 | 818.26 | 809.85 | 801.26 | 1284.5 | 1249.6 | 1214.9 | 1180.6 | 1146.6
x1 = 0.2018 | 859.55 | 851.23 | 842.82 | 834.3 | 825.64 | 1324.6 | 1289.5 | 1254.5 | 1219.9 | 1185.7
x1 = 0.301 | 884.11 | 875.67 | 867.16 | 858.56 | 849.84 | 1364.2 | 1329 | 1293.8 | 1259 | 1224.5
x1 = 0.4047 | 909.21 | 900.68 | 892.08 | 883.41 | 874.64 | 1405.6 | 1370.1 | 1334.7 | 1299.7 | 1265
x1 = 0.5076 | 933.32 | 924.7 | 916.03 | 907.3 | 898.5 | 1446.2 | 1410.4 | 1374.6 | 1339.2 | 1304.2
x1 = 0.6006 | 954.58 | 945.89 | 937.17 | 928.39 | 919.55 | 1483.1 | 1447 | 1410.8 | 1375.1 | 1339.7
x1 = 0.7029 | 977.37 | 968.62 | 959.84 | 951.01 | 942.13 | 1523.8 | 1487.2 | 1450.6 | 1414.4 | 1378.5
x1 = 0.8027 | 999.22 | 990.42 | 981.59 | 972.72 | 963.81 | 1564.5 | 1527.3 | 1490.2 | 1453.5 | 1417.2
x1 = 0.903 | 1020.12 | 1011.3 | 1002.44 | 993.55 | 984.62 | 1602 | 1564.6 | 1527.1 | 1490.1 | 1453.4
x1 = 0.9532 | 1030.34 | 1021.51 | 1012.64 | 1003.74 | 994.81 | 1620.1 | 1582.6 | 1545.1 | 1507.9 | 1471.1
x1 = 1 | 1039.36 | 1030.52 | 1021.66 | 1012.76 | 1003.83 | 1634.1 | 1596.5 | 1559 | 1521.8 | 1485

[2]
Settings | excess molar enthalpy [kcal/mol]
x1 = 0.05 | -0.032
x1 = 0.101 | -0.0624
x1 = 0.193 | -0.112
x1 = 0.2923 | -0.151
x1 = 0.3845 | -0.179
x1 = 0.4985 | -0.188
x1 = 0.5962 | -0.179
x1 = 0.7004 | -0.147
x1 = 0.8026 | -0.106
x1 = 0.8897 | -0.0564
x1 = 0.9463 | -0.0311
x1 = 1 | 0
